The subject of data set [1] is P. falciparum. Description: P. falciparum asexual blood-stage growth inhibition (LDH or SYBR Green flow cytometry). The class given is cell-based, Plasmodium falciparum. The note with it: Plasmodium falciparum, 3D7, 3D7 parasite line, asexual blood stage; read-out: EC50, inhibition of P. falciparum growth. The procedure: For High Throughput Screening (HTS) of compounds we used the lactate dehydrogenase (LDH) assay to detect parasitemia ([Makler et al., 1993], [Oduola et al., 1997]) formatted in a 384 well assay using an Echo555 (Labcyte). The P. falciparum assay was conducted with minor modifications ([Gamo et al., 2010]). Briefly, an inoculum of parasitized red blood cells at 0.7% parasitemia and 2% hematocrit in RPMI-1640, 5% AlbuMAX, 2% d-sucrose, 0.3% glutamine and 150 μM hypoxanthine was used for the assay. Assay plates (Greiner #781098, 384 well, white, tissue culture treated) were prepared by dispensing 1 μl of compound from master plates at 20 μM (10% DMSO stock) into 9ul pre-dispensed growth media in each well. The parasite inoculum (30 μl) was dispensed into plates containing compounds using a Multidrop Combi dispenser (Thermo Scientific). Final assay volume was 40 μl and final compound concentration was 500 nM. The positive growth control was 0.25% DMSO and the negative growth control was 100 nM chloroquine. Plates were incubated at 37 °C for 72 h in an atmosphere of […]. Following 72 h growth, plates were sealed with parafilm and frozen at −80 °C overnight. Plates were thawed at room temperature for at least 4 h prior to LDH activity being measured. 45 μl of fresh LDH reaction mix (174 mM sodium l-lactate, 214 μM 3-acetyl pyridine adenine dinucleotide (APAD), 270 μM Nitro Blue tetrazolium chloride (NBT), 4.35 U ml-1 diaphorase, 0.7% Tween 20, 100 mM Tris-HCl pH 7.5) was dispensed into each well using a Multidrop Combi dispenser. Plates were shaken to ensure mixing and absorbance at 650 nm was measured in an EnVision (PerkinElmer) plate reader after 30 min of incubation at room temperature. Data were normalized to percent growth inhibition using positive and negative controls and analyzed using Dotmatics 5.3 and Spotfire 7.11.1 (Tibco) software.
All wells were backfilled with DMSO to 45 nL such that this remained constant (0.1% DMSO). The positive growth control was 0.1% DMSO and the negative growth control was 100 nM chloroquine. Parasite inoculum (40 μl) was dispensed into plates containing compounds as described above. All other culture and lactate dehydrogenase (LDH) reaction methods are as described previously ([Makler et al., 1993], [Oduola et al., 1997]).
After 72 h incubation at 37°C each well was fixed at room temperature for 30 min with 50 μL of 0.25% glutaraldehyde (ProSciTech) diluted in PBS. Following centrifugation at 1200 rpm for 1 min, supernatants were discarded and parasites were stained with 50 μL of 5X SYBR Green (Invitrogen) diluted in PBS. 50,000 cells were counted by flow cytometry using a Cell Lab Quanta SC – MPL Flow Cytometer (Beckman Coulter) ([Bacon et al., 2007]). Growth was expressed as a percentage of the parasitemia obtained using a vehicle control. All samples were tested in triplicate. EC50 values were determined using GraphPad Prism.
(Flow cytometry measures light scatter and fluorescence of single cells or particles in a stream.)

Another data set relates to P. knowlesi. Put plainly: P. knowlesi drug sensitivity assay. The class given is cell-based, Plasmodium knowlesi. As to conditions: 48 h, blood stage parasites, read-out: EC50, inhibition of P. knowlesi growth. As for the experimental part: The drug sensitivity assays were performed in 96-well plates using 50 μL culture at 0.5% parasitemia and 2% hematocrit. The compounds were serially diluted in 1% DMSO. Parasite growth assays were performed for 48 h. Parasite cultures were then fixed with 50 μL 0.25% glutaraldehyde for 30 min at room temperature. The culture supernatants were removed and the cells were stained with 5% SYBR Green in the dark for 30 min. Parasitemia was defined by the proportion of Alexa 488-A positive cells in 50,000 recorded events using LSR II analyzer (BD). The percentage of parasite growth was normalized with the DMSO vehicle control group and the highest-dosage group, and plotted as a dose-response curve in Prism 7.

Data set [2] has as its system P. falciparum. Put plainly: P. falciparum humanized NOD-scid IL2R_null mouse model. The procedure:
Compounds were tested in the murine P. falciparum SCID model ([Angulo-Barturen et al., 2008]). […] The mice were intravenously infected with 2 × 10^7 P. falciparum Pf3D7-infected erythrocytes (day 0) ([Angulo-Barturen et al., 2008]). On day 3 after infection, mice were randomly allocated to treatments that were administered once a day for 4 consecutive days (n = 3 mice) by oral gavage at 10 mL/kg. Parasitemia was measured by microscopy. Chimerism was monitored by flow cytometry using anti-murine erythrocyte TER119 monoclonal antibody (PharMingen, San Diego, CA) and SYTO-16 and then analyzed by flow cytometry in serial 2 μL blood samples taken every 24 h until assay completion.

Where two headings read alike, the source gives them in different places.

As a reminder, the EC50 is the midpoint of the concentration-response curve. Turning to `CCC1(CC)CC(=O)N([C@@H]2CCOc3ccc(C(=O)N[C@H]4CC(C)(C)Oc5ccccc54)cc32)C(=N)N1` [WM382], the EC50 in the data set with P. falciparum [1] was 0.6 nM; with P. knowlesi (Plasmodium knowlesi), 0.2 nM; with P. knowlesi, 0.18 ± 0.06 nM. For the same compound, the results for the “day by which mice were cleared of parasitemia” value in the data set on P. falciparum [2] (WM382 3 mpk oral q.d. 4 days from day 3), in the data set with P. falciparum [2] (WM382 10 mpk oral q.d. 4 days from day 3) and in the data set on P. falciparum [2] (WM382 30 mpk oral q.d. 4 days from day 3) were at most 7 days, at most 7 days and at most 6 days, respectively. In the data set with P. falciparum [2] (in vivo and in vitro), the “efficacy against P. falciparum including parasitemia clearance rate, compared with chloroquine” value is reported as “at least equivalent to chloroquine”.

The values are drawn from PMC7146544, “Dual Plasmepsin-Targeting Antimalarial Agents Disrupt Multiple Stages of the Malaria Parasite Life Cycle” (Cell Host & Microbe, 2020).
